In PMC6910946, “Multiple roles of Bet v 1 ligands in allergen stabilization and modulation of endosomal protease activity” (Allergy, 2019):
Like-named read-outs stand apart in the source and are kept apart here.

What was measured:
Bet_v_1 [1] = target: T1, Bet_v_1 (Betula pendula, UniProt P15494); test: Surface acoustic wave (SAW) interaction studies, determination of Kd; assay type: binding
T1 construct: made in house
T1 sequence (P15494 1-160): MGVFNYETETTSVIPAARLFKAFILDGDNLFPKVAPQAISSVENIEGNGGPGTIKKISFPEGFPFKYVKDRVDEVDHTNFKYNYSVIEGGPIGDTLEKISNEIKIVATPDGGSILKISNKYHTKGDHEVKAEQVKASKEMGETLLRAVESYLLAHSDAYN
Source text: (§1) Surface acoustic wave (SAW) technology and NMR spectroscopy were used to observe the interaction of Bet_v_1 with the selected compounds, including determination of the dissociation constant (K d). The influence of ligand binding on the secondary structure elements and the thermal stability of Bet_v_1 was monitored using circular dichroism (CD, JASCO J‐815 spectropolarimeter, Jasco) and Fourier transform infrared (FTIR) spectroscopy (Tensor II FTIR system, Bruker Optics Inc). A detailed description of these methods is available (Appendix [Link], [Link]).
To assess the interactions between Bet_v_1 and Q3OS, DOC, PPE1, LTA, or LPS, we determined the dissociation constants (K d) using SAW binding assays (Table 1, Figure S1), a more quantitative approach than previously described qualitative assays.11, 25 In addition, the LPS‐substructure Kdo2‐Lipid A (Kdo2) was used for binding studies, due to its more homogenous structure but similar immune stimulatory activity when compared to native LPS.
For the determination of the affinity constant Kd, we used surface acoustic wave (SAW) technology. The interaction of the six ligands with Bet v 1 was investigated using a sam® 5BLUE biosensor instrument (Nanotemper, Munich, Germany). Bet v 1 was immobilized in PBS on the surface of a SAW CM-Dextran 3D sensor chip. […] For calculating the affinity constant Kd, different concentrations of the ligands dissolved in a 5 mM sodium phosphate buffer, pH 7.4, were applied to the Bet v 1-coupled chip. Depending on the ligand, the concentration range of the injected ligand varied between 5 µM and 500 µM. For the removal of residual ligand between the sample injections, the chip was washed with regeneration buffer (10 mM citric acid buffer, pH 2.8). The recorded SAW phase changes were analyzed using the software TraceDrawer 1.7 (Ridgeview Instruments, Uppsala, Sweden). The affinity constant Kd was calculated by kinetic evaluation and affinity/EC50 estimation. For kinetic evaluation, an OneToOne curve fit was chosen to match the raw data. Experiments were performed with two coated chips in duplicate, and the coupling efficiency was evaluated using a mouse monoclonal anti-Bet v 1 antibody.

[2] = target: T2, Bet v 1 / human cathepsin S (Betula pendula, UniProt P15494); test: Bet v 1 in vitro proteolytic degradation assay with cathepsin S; assay type: biochemical; details: Bet v 1 20 µM, ligand 100 µM, cathepsin S 1 µM, pH 5.0, 0-24 h, SDS-PAGE
T2 construct: made in house
T2 sequence (P15494 2-160 limits assumed): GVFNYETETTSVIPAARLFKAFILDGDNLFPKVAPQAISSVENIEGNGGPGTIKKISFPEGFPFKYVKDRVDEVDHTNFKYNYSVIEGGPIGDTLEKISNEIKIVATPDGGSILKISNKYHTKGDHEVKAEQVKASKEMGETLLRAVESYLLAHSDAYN
Method: (§2) The endolysosomal degradation assay was performed with ligand‐bound (either DOC, PPE1, or Q3OS in 10× molar excess) and Bet_v_1 without ligands (apo‐Bet_v_1) as previously described.21 Recombinant human cathepsin S and human legumain were used in proteolytic degradation assays. Experimental details are described in the Appendix [Link], [Link].
(§3) Recombinant human cathepsin S and human legumain were heterologously expressed and purified as described previously.^9,10 Bet v 1 (20 µM) was incubated with ligand (100 µM) in digestion buffer (0.1 M sodium acetate, pH 5.0, 0.1 M sodium chloride, 5 mM EDTA, and 2 mM DTT) at room temperature prior to the addition of cathepsin S (1 µM) or legumain (2 µM). […] At each time point, the reaction was halted by the addition of E64 (for cathepsin S) or YVAD-CMK (for legumain) at a final concentration of 50 µM, and analyzed by SDS-PAGE. Control reactions without the addition of protease were performed. The generated peptides were analyzed using mass spectrometry.

Bet v 1 / human legumain = target: T3, Bet v 1 / human legumain (Betula pendula, UniProt P15494); test: Bet v 1 in vitro proteolytic degradation assay with legumain; assay type: biochemical; details: Bet v 1 20 µM, ligand 100 µM, legumain 2 µM, pH 5.0, 0-24 h, SDS-PAGE
T3 construct: made in house
T3 sequence (P15494 2-160 limits assumed): T2 sequence (P15494 2-160 limits assumed)
Method: as §2, §3

Bet_v_1 [3] = target: T1, Bet_v_1; details: read-out: K d of ANS, previously published; cited from earlier work
Bet_v_1 [4] = target: T1, Bet_v_1; test: NMR spectroscopy (1H-15N HSQC) binding confirmation; details: for NMR (binding confirmation, K d): 15N-labeled Bet v 1, direct measurement of Kd prevented by intermediate exchange; for specific binding to Bet v 1 (1H-15N HSQC spectra): absence vs presence of compound
Source text: as §1
To validate the interactions determined by SAW, we used NMR spectroscopy to test the specific binding of PPE1, LTA, LPS, and Kdo2 to Bet_v_1 (Table 1, Figure S2). […] The commercially available PPA1 was used as a substitute for PPE1 to identify the phytoprostane binding site(s).
The NMR data were acquired with either a 600 or 800 MHz Agilent DD2 spectrometer with a cryogenically cooled probe using the pulse sequence gNhsqc. Bet v 1 assignments were taken from.^2 The experiments were performed under the following conditions: LTA: 45 µM Bet v 1 and 300 µM LTA in PBS, 10% ^2H2O, 60 µM DSS; PPE1: 25 µM Bet v 1 and 2 µM PPE1 in PBS, 5% ^2H-(d6) DMSO, 10% ^2H2O, 60 µM DSS; PPA1: 100 µM Bet v 1 and 302 µM PPA1 (Cayman Chemical, MI, USA) in PBS, 8.7% ^2H-(d6) DMSO, 10% ^2H2O, 60 µM DSS; LPS: 100 µM Bet v 1 and 400 µM LPS in PBS pH 7.4, 10% ^2H2O, 60 µM DSS. Kdo2: 100 µM Bet v 1 and 422 µM Kdo2 in PBS pH 7.0, 10% ^2H2O, 8.6% ^2H-(d6) DMSO, 60 µM DSS.

cathepsin S = target: T4, cathepsin S (Homo sapiens, UniProt P25774); test: Enzymatic activity assay, fluorogenic substrate Z-VVR-AMC; assay type: biochemical
T4 construct: made in house
T4 sequence (P25774 115-331): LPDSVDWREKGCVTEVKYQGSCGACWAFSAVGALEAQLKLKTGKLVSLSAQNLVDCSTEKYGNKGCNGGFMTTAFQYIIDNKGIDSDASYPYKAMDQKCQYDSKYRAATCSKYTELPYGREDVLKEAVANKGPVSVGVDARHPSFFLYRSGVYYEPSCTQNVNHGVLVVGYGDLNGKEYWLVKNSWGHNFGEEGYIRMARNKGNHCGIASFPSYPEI
Method: To evaluate the influence of Bet_v_1 ligands on cathepsin S and legumain activities, 10 nmol/L of protease was incubated with 100 µmol/L of ligand (unless otherwise stated) and 50 µmol/L of fluorogenic substrate in digestion buffer (0.1 mol/L sodium acetate pH 5.0, 0.1 mol/L sodium chloride, 5 mmol/L EDTA, and 2 mmol/L DTT), as described in the Appendix [Link], [Link]. The effect of birch pollen extract (BPE) (20‐200 µg/mL) on the cathepsin S and legumain activities was assessed in parallel. The inhibitory effect of PPE1 was assessed by replacing DTT with 0.5 mmol/L TCEP. Activities of recombinant rat cathepsin B (provided by Dr Lukas Mach) and papain (Merck) at 10 nmol/L were assayed using Z‐FR‐AMC (Bachem) as a fluorogenic substrate.
For the detection of cathepsin or legumain activities in the microsomal fraction, 8 µg of microsomal extract was incubated with 50 µM fluorogenic substrate with or without inhibitor in assay buffer (100 mM citrate pH 4.8 and 2 mM DTT). The enzymatic reactions were carried out in a 50 µL reaction volume in a 96-half-well black flat bottom assay plate (Corning Inc., Corning, NY, USA) at 37°C. The fluorescence signal was recorded using a Tecan Infinite-200 plate reader (Tecan, Männedorf, Switzerland) at an excitation wavelength of 380 nm and emission wavelength of 460 nm for 15 min of continuous measurement with a 30-s interval reading. The fluorogenic substrates used for cathepsin S and legumain were Z-VVR-AMC and Z-AAN-AMC (Bachem, Bubendorf, Switzerland), respectively. The inhibitors used for cathepsin S and legumain were Z-FL-COCHO (Sigma-Aldrich, CA, USA) and Ac-YVAD-CMK (Bachem), respectively^11.

Bet_v_1 [5] = target: T1, Bet_v_1; test: LPS pull-down assay; assay type: binding, Betula verrucosa; details: LPS immobilized on Strep‐Tactin Sepharose beads
Method: To investigate whether Bet v 1 binds LPS, a pull-down assay using biotinylated ultrapure E. coli O111:B4 LPS (InvivoGen, San Diego, CA, USA) was performed as previously described.^3 In short, biotinylated LPS was immobilized on Strep-Tactin Sepharose beads (IBA Lifesciences, Göttingen, Germany) and incubated with Bet v 1 for 20 min at room temperature. Unbound protein was washed off and beads were analyzed by SDS-PAGE. As control, the individual components (Bet v 1, biotinylated LPS and Strep-Tactin Sepharose beads), and Bet v 1+beads to exclude unspecific binding, were analyzed.

[6] = Bet v 1 immobilized on chip, ligands in 5 mM sodium phosphate buffer pH 7.4, read-out: Binding affinity K d (SAW)
[7] = Fig. S1 sensorgrams, read-out: Kd (SAW, Fig. S1)

Molecule	processing (degradation) of Bet v 1 by cathepsin S [2]	processing (degradation) of Bet v 1 by legumain (Bet v 1 / human legumain)	Kd (Bet_v_1 [1]; [6]) [µM]	Kd (Bet_v_1 [1]; [7]) [µM]	NMR (binding confirmation, K d) (Bet_v_1 [4])	specific binding to Bet v 1 (1H-15N HSQC spectra) (Bet_v_1 [4])	other results
O=S(=O)(O)c1cccc2cccc(Nc3ccccc3)c12 [ANS, 8‐anilinonaphthalene‐1‐sulfonic acid]	no detectable	no detectable					Kd (Bet_v_1 [1]; Binding affinity K d (SAW), Bet v 1 immobilized on chip, ligands in 5 mM sodium phosphate buffer pH 7.4): 32.7 µM; Kd (Bet_v_1 [1]; Kd (SAW, Fig. S1), Fig. S1 sensorgrams): 32.7 µM; Kd (Bet_v_1 [3]): 18.5 µM
CCCCCCCCCCCCCC(=O)O[C@H](CCCCCCCCCCC)CC(=O)O[C@@H]1[C@@H](NC(=O)C[C@@H](CCCCCCCCCCC)OC(=O)CCCCCCCCCCC)[C@H](OC[C@H]2O[C@H](OP(=O)(O)O)[C@H](NC(=O)C[C@H](O)CCCCCCCCCCC)[C@@H](OC(=O)C[C@H](O)CCCCCCCCCCC)[C@@H]2O)O[C@H](CO[C@]2(C(=O)O)C[C@@H](O[C@]3(C(=O)O)C[C@@H](O)[C@@H](O)[C@@H]([C@H](O)CO)O3)[C@@H](O)[C@@H]([C@H](O)CO)O2)[C@H]1OP(=O)(O)O [Kdo2, Kdo2‐Lipid A]			380	380	No significant interactions	No significant interactions	
O=C1C[C@@H](c2ccc(O)cc2)Oc2cc(O)cc(O)c21 [Naringenin, naringenin]	minor	minor					
CCC(O)/C=C/C1C(O)CC(O)C1CCCCCCCC(=O)O (stereo not shown) [PPF1, F1‐phytoprostanes]			2.4				cathepsin S activity with phytohormones structurally related to PPE1 (cathepsin S; 0.1 mmol/L, 15 min (Figure 4B)): did not inhibit
CCCCCCCCCCCCOS(=O)(=O)[O-].[Na+] [SDS, sodium dodecyl sulfate]	significantly accelerated	significantly accelerated					cathepsin S fluorogenic activity (cathepsin S; 10 nmol/L protease, 100 µmol/L ligand, 50 µmol/L substrate, pH 5.0, 2 mmol/L DTT (Figure 3A)): reduced the cleavage of fluorogenic substrates
lipopolysaccharide [LPS]			185	185	No significant interactions	No significant interactions	binding of Bet v 1 to biotinylated LPS (pull-down) (Bet_v_1 [5]): do not specifically bind
lipoteichoic acid [LTA]			200	200	No significant interactions	No significant interactions	
